Key:
[1] = system: Chenopodium album (CHEAL); assay: Test F preemergence, alone and in mixture with rimsulfuron, CHEAL; type: in vivo; conditions: 21 days after treatment, 0-100 scale
Outline: (§1)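 Greenhouse pot plants treated preemergence with compound at 70 and 105 g ai/ha, rimsulfuron at 8.8 and 17.5 g ai/ha, or mixtures; 27° C day/21° C night, 14 hour photoperiod. Injury scored at 21 days after treatment against solvent-sprayed controls; expected additive effect of mixtures calculated by Colby's equation.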

[2] = system: Green foxtail; assay: Test D green foxtail; type: in vivo; conditions: Postemergence, 0 to 100 scale, 0 no injury, 100 complete control
[3] = system: Spanishneedles; assay: Test D Spanishneedles; type: in vivo, Bidens bipinnata; conditions: Postemergence, 0 to 100 scale
[4] = system: Green foxtail; assay: Test D green foxtail; type: in vivo; conditions: Postemergence, 0 to 100 scale, 0 no injury, 100 complete control; remark: listed apart in the source
[5] = system: Abutilon theophrasti (ABUTH); assay: Test F preemergence, alone and in mixture with rimsulfuron, ABUTH; type: in vivo; conditions: 21 days after treatment, 0-100 scale
Protocol: (§2) Abutilon theophrasti (ABUTH), Chenopodium album (CHEAL), Amaranthus rudis (AMATA), Setaria faberii (SETFA), Panicum dichotomiflorum (PANDI), and Digitaria sanguinalis (DIGSA) were grown from seed in pots of an artificial potting mixture in a greenhouse. Compounds of the present invention were applied at 70 and 105 g ai/ha preemergence. Rimsulfuron was applied at 8.8 and 17.5 g ai/ha. Mixtures of the compounds of the present invention and rimsulfuron were also applied.
(§3) Following application, the plants were maintained by watering as needed. A fertilizer solution of Peter's 20-20-20 (10 pounds/5 gallons of water) plus Sprint 330, a Iron Chelate micronutrient, (113.5 grams/5 gallons of water) was injected into the water with an Anderson fertilizer injection system to provide approximately 219 ppm of nitrogen with each watering. Artificial lighting was used to supplement natural light to produce a 14 hour photoperiod and: an additional one hour light period was used between 1:00 am to 2:00 am for a night interruption. Greenhouse temperatures were targeted for 27° C. in the day and 21° C. at night. At 21 days after treatment, all plants were evaluated for injury as compared to control plants that were sprayed only with non-phytotoxic solvent.
(§4) Colby's equation was used to calculate the expected additive herbicidal effect of the mixtures of Compound 21 and the mixture partners listed above. […]

[6] = system: goosegrass; assay: Test D goosegrass; type: in vivo, Eleusine indica; conditions: Postemergence, 0 to 100 scale
[7] = system: common groundsel; assay: Test D common groundsel; type: in vivo, Senecio vulgaris; conditions: Postemergence, 0 to 100 scale
[8] = system: Alexandergrass; assay: Test D Alexandergrass; type: in vivo, Brachiaria plantaginea; conditions: Postemergence, 0 to 100 scale
[9] = system: itchgrass; assay: Test D itchgrass; type: in vivo, Rottboellia exaltata; conditions: Postemergence, 0 to 100 scale
[10] = system: guineagrass; assay: Test D guineagrass; type: in vivo, Panicum maximum; conditions: Postemergence, 0 to 100 scale
[11] = system: common pursiane; assay: Test D common purslane; type: in vivo, Portulaca oleracea; conditions: Postemergence, 0 to 100 scale
[12] = system: common ragweed; assay: Test D common ragweed; type: in vivo, Ambrosia elatior; conditions: Postemergence, 0 to 100 scale
[13] = system: Panicum dichotomiflorum (PANDI); assay: Test F preemergence, alone and in mixture with rimsulfuron, PANDI; type: in vivo; conditions: 21 days after treatment, 0-100 scale
Outline: as §1

[14] = system: bermuda-grass; assay: Test D bermudagrass; type: in vivo, Cynodon dactylon; conditions: Postemergence, 0 to 100 scale
[15] = system: Digitaria sanguinalis (DIGSA); assay: Test F preemergence, alone and in mixture with rimsulfuron, DIGSA; type: in vivo; conditions: 21 days after treatment, 0-100 scale
Protocol: as §2, §3, §4

[16] = system: Setaria faberii (SETFA); assay: Test F preemergence, alone and in mixture with rimsulfuron, SETFA; type: in vivo; conditions: 21 days after treatment, 0-100 scale
Protocol: as §2, §3, §4

[17] = system: Amaranthus rudis (AMATA); assay: Test F preemergence, alone and in mixture with rimsulfuron, AMATA; type: in vivo; conditions: 21 days after treatment, 0-100 scale
Protocol: as §2, §3, §4

[18] = system: surinam grass; assay: Test D surinam grass; type: in vivo, Brachiaria decumbens; conditions: Postemergence, 0 to 100 scale
[19] = system: pitted morningglory; assay: Test D pitted morningglory; type: in vivo, Ipomoea lacunosa; conditions: Postemergence, 0 to 100 scale
[20] = system: dallisgrass; assay: Test D dallisgrass; type: in vivo, Paspalum dilatatum; conditions: Postemergence, 0 to 100 scale
[21] = system: scentless chamomile; assay: Test E scentless chamomile; type: in vivo, Matricaria inodora; conditions: Preemergence
[22] = Alone: Cmpd. rate 70, Rimsulfuron 0
[23] = Alone: Cmpd. rate 105, Rimsulfuron 0
[24] = Rate 16 g/ha, 0 no injury, 100 complete control
[25] = Rate 32 g/ha, 0 no injury, 100 complete control
[26] = Rate 64 g/ha, 0 no injury, 100 complete control
[27] = Rate 125 g/ha, 0 no injury, 100 complete control

## CC(C)N(C(=O)n1oc(=O)n(C(C)C)c1=O)c1ccc(F)cc1 [Compound 131]
[1]; [22]
  CHEAL Observed: 60%
[1]; [23]
  CHEAL Observed: 95%
[2]; Rate 64 g/ha
  Plant response rating, Green foxtail: 100
[2]; Rate 125 g/ha
  Plant response rating, Green foxtail: 100
[3]; [24]
  Plant response rating, Spanishneedles: 0
[3]; [25]
  Plant response rating, Spanishneedles: 0
[3]; [26]
  Spanishneedles plant response rating: 0
[3]; [27]
  Spanishneedles plant response rating: 70
[3]; Rate 250 g/ha
  Plant response rating, Spanishneedles: 60
[4]; Rate 64 g/ha
  Green foxtail plant response rating: 100
[4]; Rate 125 g/ha
  Green foxtail plant response rating: 100
[5]; [22]
  ABUTH Observed: 40%
[5]; [23]
  ABUTH Observed: 60%
[6]; [24]
  Plant response rating, Goosegrass: 90
[6]; [25]
  Plant response rating, Goosegrass: 100
[6]; [26]
  Plant response rating, Goosegrass: 100
[6]; [27]
  Plant response rating, Goosegrass: 100
[6]; Rate 250 g/ha
  Plant response rating, Goosegrass: 100
[7]; [24]
  Plant response rating, Com. groundsel: 90
[7]; [25]
  Plant response rating, Com. groundsel: 100
[7]; [26]
  Plant response rating, Com. groundsel: 100
[7]; [27]
  Plant response rating, Com. groundsel: 100
[7]; Rate 250 g/ha
  Plant response rating, Com. groundsel: 100
[8]; [24]
  Plant response rating, Alexandergrass: 0
[8]; [25]
  Plant response rating, Alexandergrass: 50
[8]; [26]
  Plant response rating, Alexandergrass: 100
[8]; [27]
  Plant response rating, Alexandergrass: 100
[8]; Rate 250 g/ha
  Plant response rating, Alexandergrass: 100
[9]; [24]
  Plant response rating, Itchgrass: 0
[9]; [25]
  Plant response rating, Itchgrass: 0
[9]; [26]
  Plant response rating, Itchgrass: 20
[9]; [27]
  Plant response rating, Itchgrass: 100
[9]; Rate 250 g/ha
  Plant response rating, Itchgrass: 100
[10]; [24]
  Plant response rating, Guineagrass: 0
[10]; [25]
  Plant response rating, Guineagrass: 20
[10]; [26]
  Plant response rating, Guineagrass: 100
[10]; [27]
  Plant response rating, Guineagrass: 100
[10]; Rate 250 g/ha
  Plant response rating, Guineagrass: 100
[11]; [24]
  Plant response rating, C. purslane: 0
[11]; [25]
  Plant response rating, C. purslane: 0
[11]; [26]
  Plant response rating, C. purslane: 0
[11]; [27]
  Plant response rating, C. purslane: 0
[11]; Rate 250 g/ha
  Plant response rating, C. purslane: 0
[12]; [24]
  Plant response rating, C. ragweed: 0
[12]; [25]
  Plant response rating, C. ragweed: 0
[12]; [26]
  Plant response rating, C. ragweed: 0
[12]; [27]
  Plant response rating, C. ragweed: 90
[12]; Rate 250 g/ha
  Plant response rating, C. ragweed: 100
[13]; [22]
  PANDI Observed: 100%
[13]; [23]
  PANDI Observed: 95%
[14]; [24]
  Plant response rating, Bermudagrass: 30
[14]; [25]
  Plant response rating, Bermudagrass: 90
[14]; [26]
  Plant response rating, Bermudagrass: 100
[14]; [27]
  Plant response rating, Bermudagrass: 100
[14]; Rate 250 g/ha
  Plant response rating, Bermudagrass: 100
[15]; [22]
  DIGSA Observed: 100%
[15]; [23]
  DIGSA Observed: 100%
[16]; [22]
  SETFA Observed: 35%
[16]; [23]
  SETFA Observed: 65%
[17]; [22]
  AMATA Observed: 50%
[17]; [23]
  AMATA Observed: 40%
[18]; [24]
  Plant response rating, Surinam grass: 0
[18]; [25]
  Plant response rating, Surinam grass: 40
[18]; [26]
  Surinam grass plant response rating: 60
[18]; [27]
  Surinam grass plant response rating: 100
[18]; Rate 250 g/ha
  Plant response rating, Surinam grass: 100
[19]; [24]
  Plant response rating, P. morninglory: 0
[19]; [25]
  Plant response rating, P. morninglory: 0
[19]; [26]
  Plant response rating, P. morninglory: 0
[19]; [27]
  Plant response rating, P. morninglory: 0
[19]; Rate 250 g/ha
  Plant response rating, P. morninglory: 100
[20]; [24]
  Plant response rating, Dallisgrass: 20
[20]; [25]
  Plant response rating, Dallisgrass: 60
[20]; [26]
  Plant response rating, Dallisgrass: 100
[20]; [27]
  Plant response rating, Dallisgrass: 100
[20]; Rate 250 g/ha
  Plant response rating, Dallisgrass: 100

## CC(C)N(C(=O)n1oc(=O)n(C(C)C)c1=O)c1ccc(Cl)cc1 [Compound 114]
[21]; Rate 125 g/ha, 0 to 100 scale (0 no effect, 100 complete control)
  Plant response rating, Scentless chamo: 30
[21]; Rate 250 g/ha, 0 to 100 scale
  Plant response rating, Scentless chamo: 30
[21]; Rate 500 g/ha, 0 to 100 scale where 0 is no effect and 100 is complete control
  Plant response rating, Scentless chamo: 10

— US6737383B1, “Herbicidal oxadiazolidines” (priority 1999, dated 2004)
